Results from PMC7180617, “Biological Evaluation of 3-Benzylidenechromanones and Their Spiropyrazolines-Based Analogues” (Molecules, 2020).
Values joined by “and” are separate entries in the source; they are usually repeats but may differ in a detail not shown here. Equal values may be shown once.

Key:
[1] = test system: HL-60 cells; test: Cell cycle analysis by flow cytometry (propidium iodide); assay type: cell-based, human; conditions: for cell cycle, G1, mean / cell cycle, G2/M, mean / cell cycle, S, mean: mean of n=2; for cell cycle distribution, G1 / cell cycle distribution, G2 / cell cycle distribution, G2/M: HL-60, 20 h, mean ± SD, n = 2
Method in brief: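 HL-60 (CCL 240) cells were grown in RPMI 1640 with 20% FBS, fixed and stored at −20 °C for 2–3 days. RNase A was applied at 37 °C for 10 min, then propidium iodide for 30 min at RT in the dark. Cell-cycle distribution was determined by flow cytometry from 10,000 gated cells.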

[2] = test system: WM-115 cells; test: MTT cytotoxicity assay, WM-115; assay type: cell-based, human; conditions: Homo sapiens, WM-115, 48 h, MTT, 46 h + 2 h incubation
Experimental: (§1) The first stage of the study used the MTT viability test to determine the cytotoxicity of ten compounds, i.e., 3-arylidenechromanone, 3-arylideneflavanone, spirochromanone and spiro- flavanone analogues, against four human cancer cell lines: HL-60, NALM-6, WM-115 and COLO-205.
(§2) Cytotoxicity was tested against human skin melanoma cells (WM-115, ECACC, Salisbury, UK), two human leukemia cell lines, viz. promyelocytic leukemia (HL-60) and lymphoblastic leukemia (NALM-6), and human colon adenocarcinoma cells (COLO-205). The cell lines COLO-205, WM-115 and HL-60 used in this work came from the ATCC American Type Culture Collection (Manassas, VA, USA), whereas the NALM-6 cell line was purchased from the German Collection of Microorganisms and Cell Cultures (Braunschweig, Germany). The leukaemia cells and colon adenocarcinoma were cultured in RPMI 1640 medium (Invitrogen, Grand Island, NY, USA) supplemented with 10% fetal bovine serum (FBS; Invitrogen) and gentamicin (25 µg/mL; KRKA, Novo Mesto, Slovenia). For melanoma WM-115 cells, Dulbecco’s minimal essential medium (DMEM; Invitrogen) was used. All cell lines were cultured at 37 °C in a humidified atmosphere of 5% CO2 in air.
(§3) For all experiments, the studied compounds were dissolved in DMSO (Sigma-Aldrich) and were further diluted in culture medium to obtain <0.1% DMSO concentration. In each experiment, controls with and without 0.1% DMSO were performed. The cytotoxicity of all compounds and of the reference compounds 4-chromanone and 3-benzylideneflavanone was determined by the MTT assay, i.e., 3-(4,5-dimethylthiazol-2-yl)-2,5-diphenyltetrazolium bromide (Sigma, St. Louis, MO, USA), which measures cellular dehydrogenase activity. Exponentially growing cells were seeded a day before the experiment onto a 96-well microplates (Nunc, Roskilde, Denmark) at a density up to 6–8 × 10^3 cells/well (depending on the cell line). Subsequently, various concentrations of the studied compounds freshly prepared in DMSO and diluted with complete culture medium were added. All compounds were tested for their cytotoxicity at a final concentration of 10^−7–10^−3 M. After 46 h of incubation with the studied compounds, the cells were treated with the MTT reagent and incubation was continued for another two hours. MTT – formazan crystals were dissolved in 20% sodium dodecyl sulphate (SDS, Sigma-Aldrich) and 50% DMF (Sigma-Aldrich) at pH 4.7; following this, absorbance was read at 570 nm on a multifunctional Victor ELISA-plate reader (Perkin Elmer, Turku, Finland). The IC50 values, i.e., the concentration of the test compound required to reduce the cell survival fraction to 50% of controls, were calculated from concentration-response curves and used as a measure of the sensitivity of the cells to a given treatment. As a control, cultured cells were grown in the absence of drugs. The data points represent the means of at least five to ten repeats ± standard deviation (S.D.).

[3] = test system: NALM-6 cells; test: MTT cytotoxicity assay, NALM-6; assay type: cell-based, human; conditions: Homo sapiens, NALM-6, 48 h, MTT, 46 h + 2 h incubation
Experimental: as §1, §2, §3

[4] = test system: HL-60 cells; test: MTT cytotoxicity assay, HL-60; assay type: cell-based, human; conditions: Homo sapiens, HL-60, 48 h, MTT, 46 h + 2 h incubation
Experimental: as §1, §2, §3

[5] = test system: red blood cells (RBC membrane integrity); test: Red blood cell lysis assay; assay type: cell-based; conditions: 2% RBC suspension, 37 °C, 1 h
Excerpt: All synthesized compounds with potential biological activity have to be tested for blood compatibility since xenobiotics will react with blood cells upon administration. In this case, biocompatibility refers to the quantification of cellular and plasma components of the blood. The measurement of the integrity of RBC membrane is considered a simple and reliable method for estimating hemocompatibility.
The studies on biological material were approved by the Bioethics Committee of the Medical University of Lodz, Poland (RNN/109/16/KE). The blood samples were obtained from healthy donors at the Blood Donation Centre in Lodz. The procedure for plasma preparation for erythrotoxicity studies was described previously. The influence of synthesized compounds as well as two reference compounds flavanone and chromanone on RBC membrane integrity was performed by lysis assay which was conducted according to our previous protocol. Briefly, 2% RBC suspension in 0.9% NaCl was incubated at 37 °C for one hour with the tested compounds at various concentrations corresponding to their activity towards cancer cell lines or 0.9% NaCl (control). The samples were centrifuged at 3000 rpm for 10 min and the absorbance of the supernatant was measured at 550 nm. The results are presented as percentage of haemolysis where a sample containing 10 μL of 2.0% v/v Triton X-100 was regarded as a positive control contributing to 100% of haemolysis. A sample containing saline solution represented spontaneous haemolysis of RBCs (control). The studies were performed on four biological samples obtained from different blood donors (n = 4). The results are presented as mean ± standard deviation (SD). The coefficient of variability for the method was counted: W = 9.51%, n = 5.

[6] = Figure S3, HL-60, 0.5 × IC50 (µM: quercetin 29, 1 1.5, 7 18, 10 4.7, 11 4.5, 12 6)
[7] = Figure S3, HL-60, 0.5 × IC50, each of two repetitions
[8] = Figure S3, HL-60, 1 × IC50 (µM: quercetin 58, 1 3, 7 35, 10 9.4, 11 9, 12 12)
[9] = Figure S3, HL-60, 1 × IC50, each of two repetitions
[10] = 0.5 × IC50 (µM: quercetin 29, 2 1.5, 7 18, 12 6, 11 4.5, 10 4.7)
[11] = 1 × IC50 (µM: quercetin 58, 2 3, 7 35, 12 12, 11 9, 10 9.4)

In the case of `O=C1/C(=C/c2ccccc2)COc2ccccc21` [Compound 7, (E)-3-benzylidene-chroman-4-one], the “cell cycle, G1, mean” value [1, 6] is reported as 57,71%, the “cell cycle, G2/M, mean” value [1, 6] is reported as 20,82% and the “cell cycle, S, mean” value [1, 6] is reported as 21,48%. For the same compound, the “cell cycle, G1, single repetitions” value [1, 7] was 52,64% and 62,77%, the “cell cycle, G2/M, single repetitions” value [1, 7] was 18,44% and 23,20% and the “cell cycle, S, single repetitions” value [1, 7] was 18,79% and 24,16%. For the same compound, the “cell cycle, G1, mean” value ([1]; Figure S3, HL-60, 1 × IC50 (µM in parenthesis: quercetin 58, 1 3, 7 35, 10 9.4, 11 9, 12 12)) was 50,37%, the “cell cycle, G2/M, mean” value [1, 8] was 26,09% and the “cell cycle, S, mean” value [1, 8] was 23,55%. For the same compound, the “cell cycle, G1, single repetitions” value [1, 9] was 51,06% and 49,68%, the “cell cycle, G2/M, single repetitions” value [1, 9] was 26,04% and 26,13% and the “cell cycle, S, single repetitions” value [1, 9] was 22,89% and 24,20%. The “cell cycle distribution, G1” value [1, 10] was 57.7 ± 7.2%, the “cell cycle distribution, G2” value [1, 10] was 21.5 ± 3.8% and the “cell cycle distribution, G2/M” value [1, 10] was 20.8 ± 3.4%. For the same compound, the “cell cycle distribution, G1” value [1, 11] was 50.4 ± 1.0%, the “cell cycle distribution, G2” value [1, 11] was 23.5 ± 0.9% and the “cell cycle distribution, G2/M” value [1, 11] was 26.1 ± 0.1%. For the same compound, the “cells arrested in G2/M phase” value ([1]; HL-60, concentrations of IC50 and 0.5 × IC50) was 20–26%, the IC50 [2] was 12.8 ± 1.83 µM and the IC50 [3] was 6.83 ± 0.18 µM. The IC50 [4] was 34.8 ± 2.87 µM and the “effect on RBC hemolysis / erythrocyte membrane integrity (in words)” value [5] was “no significant effects on RBC hemolysis were observed up to 35 µM”.
